Assay results as given in US12077503B2, “Substituted cyclic amides and their use as herbicides” (FMC CORPORATION, priority 2015, dated 2024).

Legend:
Assay type in all cases: in vivo
Kochia (Kochia scoparia) [1] = test: Test A preemergence; conditions: Bassia scoparia, pre-emergence, 240 h, preemergence, 0 to 100 scale where 0 is no effect and 100 is complete control, read-out: Kochia plant response rating; for pest or weed control at 125 g/ha: 125 g ai/ha, approx. 10 d; for pest or weed control at 500 g/ha: 500 g ai/ha
Outline: (§1)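 Preemergence soil spray on seeded pots or post-emergence spray on 1–2 leaf plants, in loam–sand blend. Greenhouse ~10 d. Visual rating 0–100 against untreated plants.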

[2] = system: ragweed (common ragweed, Ambrosia elatior); test: Test A preemergence; conditions: Ambrosia artemisiifolia, pre-emergence, 240 h, preemergence, 0 to 100 scale where 0 is no effect and 100 is complete control, read-out: Ragweed plant response rating; for pest or weed control at 125 g/ha: 125 g ai/ha, approx. 10 d; for pest or weed control at 500 g/ha: 500 g ai/ha
Outline: as §1

[3] = system: pigweed (Amaranthus retroflexus); test: Test A preemergence; conditions: Amaranthus retroflexus, pre-emergence, 240 h, preemergence, 0 to 100 scale where 0 is no effect and 100 is complete control, read-out: Pigweed plant response rating; for pest or weed control at 125 g/ha: 125 g ai/ha, approx. 10 d; for pest or weed control at 500 g/ha: 500 g ai/ha
[4] = system: ryegrass, Italian (Italian ryegrass, Lolium multiflorum); test: Test A preemergence; conditions: Lolium multiflorum, pre-emergence, 240 h, preemergence, 0 to 100 scale where 0 is no effect and 100 is complete control, read-out: Ryegrass, Italian plant response rating; for pest or weed control at 125 g/ha: 125 g ai/ha, approx. 10 d; for pest or weed control at 500 g/ha: 500 g ai/ha
Outline: as §1

[5] = system: giant foxtail (Setaria faberii); test: Test A preemergence; conditions: Setaria faberi, pre-emergence, 240 h, preemergence, 0 to 100 scale where 0 is no effect and 100 is complete control, read-out: Foxtail, Giant plant response rating; for pest or weed control at 125 g/ha: 125 g ai/ha, approx. 10 d; for pest or weed control at 500 g/ha: 500 g ai/ha
Outline: as §1

[6] = system: barnyardgrass (Echinochloa crus-galli); test: Test A preemergence; conditions: Echinochloa crus-galli, pre-emergence, 240 h, preemergence, read-out: Barnyardgrass plant response rating; for pest or weed control at 125 g/ha: 125 g ai/ha, approx. 10 d; for pest or weed control at 500 g/ha: 500 g ai/ha
Outline: as §1

Kochia (Kochia scoparia) [7] = test: Test A postemergence; conditions: Bassia scoparia, post-emergence, 240 h, postemergence, read-out: Kochia plant response rating; for pest or weed control at 125 g/ha: 125 g ai/ha, visual injury on 0 to 100 scale (0 no effect, 100 complete control), approx. 10 d; for pest or weed control at 500 g/ha: 500 g ai/ha, 0 to 100 scale, 0 is no effect, 100 is complete control
Outline: as §1

[8] = system: ragweed (common ragweed, Ambrosia elatior); test: Test A postemergence; conditions: Ambrosia artemisiifolia, post-emergence, 240 h, postemergence, read-out: Ragweed plant response rating; for pest or weed control at 125 g/ha: 125 g ai/ha, visual injury on 0 to 100 scale (0 no effect, 100 complete control), approx. 10 d; for pest or weed control at 500 g/ha: 500 g ai/ha, 0 to 100 scale, 0 is no effect, 100 is complete control
Outline: as §1

[9] = system: pigweed (Amaranthus retroflexus); test: Test A postemergence; conditions: Amaranthus retroflexus, post-emergence, 240 h, postemergence, read-out: Pigweed plant response rating; for pest or weed control at 125 g/ha: 125 g ai/ha, visual injury on 0 to 100 scale (0 no effect, 100 complete control), approx. 10 d; for pest or weed control at 500 g/ha: 500 g ai/ha, 0 to 100 scale, 0 is no effect, 100 is complete control
Outline: as §1

corn (Zea mays) = test: Test A postemergence; conditions: Zea mays, post-emergence, 240 h, postemergence, read-out: Corn plant response rating; for plant injury at 125 g/ha: 125 g ai/ha, visual injury on 0 to 100 scale (0 no effect, 100 complete control), approx. 10 d; for plant injury at 500 g/ha: 500 g ai/ha, 0 to 100 scale, 0 is no effect, 100 is complete control
Outline: as §1

[10] = system: ryegrass, Italian (Italian ryegrass, Lolium multiflorum); test: Test A postemergence; conditions: Lolium multiflorum, post-emergence, 240 h, postemergence, read-out: Ryegrass, Italian plant response rating; for pest or weed control at 125 g/ha: 125 g ai/ha, visual injury on 0 to 100 scale (0 no effect, 100 complete control), approx. 10 d; for pest or weed control at 500 g/ha: 500 g ai/ha, 0 to 100 scale, 0 is no effect, 100 is complete control
Outline: as §1

[11] = system: giant foxtail (Setaria faberii); test: Test A postemergence; conditions: Setaria faberi, post-emergence, 240 h, postemergence, read-out: Foxtail, Giant plant response rating; for pest or weed control at 125 g/ha: 125 g ai/ha, visual injury on 0 to 100 scale (0 no effect, 100 complete control), approx. 10 d; for pest or weed control at 500 g/ha: 500 g ai/ha, 0 to 100 scale, 0 is no effect, 100 is complete control
Outline: as §1

[12] = system: barnyardgrass (Echinochloa crus-galli); test: Test A postemergence; conditions: Echinochloa crus-galli, post-emergence, 240 h, postemergence, read-out: Barnyardgrass plant response rating; for pest or weed control at 125 g/ha: 125 g ai/ha, visual injury on 0 to 100 scale (0 no effect, 100 complete control), approx. 10 d; for pest or weed control at 500 g/ha: 500 g ai/ha, 0 to 100 scale, 0 is no effect, 100 is complete control
Outline: as §1

[13] = system: wheat (Triticum aestivum); test: Test A postemergence; conditions: Triticum aestivum, post-emergence, 240 h, postemergence, read-out: Wheat plant response rating; for plant injury at 125 g/ha: 125 g ai/ha, visual injury on 0 to 100 scale (0 no effect, 100 complete control), approx. 10 d; for plant injury at 500 g/ha: 500 g ai/ha, 0 to 100 scale, 0 is no effect, 100 is complete control
Outline: as §1

[14] = system: Galium (catchweed bedstraw, Galium aparine); test: Test A postemergence; conditions: Galium, post-emergence, 240 h, postemergence, read-out: Galium plant response rating; for pest or weed control at 125 g/ha: 125 g ai/ha, visual injury on 0 to 100 scale (0 no effect, 100 complete control), approx. 10 d; for pest or weed control at 500 g/ha: 500 g ai/ha, 0 to 100 scale, 0 is no effect, 100 is complete control
Outline: as §1

[15] = 0 to 100 scale where 0 is no effect and 100 is complete control

CC(C)Oc1ccc([C@H]2CNC(=O)[C@@H]2C(=O)Nc2ccccc2F)cc1 [Compound 1135] was tested, and the pest or weed control at 125 g/ha (Kochia (Kochia scoparia) [1]) was 0%, the pest or weed control at 500 g/ha (Kochia (Kochia scoparia) [1]) was 0% and the pest or weed control at 125 g/ha [2] was 0%. For the same molecule, the pest or weed control at 500 g/ha [2] was 0%, the pest or weed control at 125 g/ha [3] was 0% and the pest or weed control at 500 g/ha [3] was 0%. For the same molecule, the pest or weed control at 125 g/ha [4] was 0%, the pest or weed control at 500 g/ha [4] was 0% and the pest or weed control at 125 g/ha [5] was 0%. The pest or weed control at 500 g/ha [5] was 0%, the pest or weed control at 125 g/ha [6, 15] was 0% and the pest or weed control at 500 g/ha [6, 15] was 0%. It also gave a pest or weed control at 125 g/ha (Kochia (Kochia scoparia) [7]) of 0%, a pest or weed control at 500 g/ha (Kochia (Kochia scoparia) [7]) of 0% and a pest or weed control at 125 g/ha [8] of 0%. It also gave a pest or weed control at 500 g/ha [8] of 0%, a pest or weed control at 125 g/ha [9] of 0% and a pest or weed control at 500 g/ha [9] of 0%. The plant injury at 125 g/ha (corn (Zea mays)) was 0%, the plant injury at 500 g/ha (corn (Zea mays)) was 0% and the pest or weed control at 125 g/ha [10] was 0%. For the same molecule, the pest or weed control at 500 g/ha [10] was 0%, the pest or weed control at 125 g/ha [11] was 0% and the pest or weed control at 500 g/ha [11] was 0%. The pest or weed control at 125 g/ha [12] was 0%, the pest or weed control at 500 g/ha [12] was 0% and the plant injury at 125 g/ha [13] was 0%. For the same molecule, the plant injury at 500 g/ha [13] was 0%, the pest or weed control at 125 g/ha [14] was 0% and the pest or weed control at 500 g/ha [14] was 0%.

O=C1NC[C@H](c2cc(C(F)F)cs2)[C@H]1C(=O)Nc1cccc(F)c1F [Compound 1117] gave a pest or weed control at 125 g/ha (Kochia (Kochia scoparia) [1]) of 40%, a pest or weed control at 500 g/ha (Kochia (Kochia scoparia) [1]) of 70% and a pest or weed control at 125 g/ha [2] of 20%. The pest or weed control at 500 g/ha [2] was 70%, the pest or weed control at 125 g/ha [3] was 0% and the pest or weed control at 500 g/ha [3] was 0%. For the same molecule, the pest or weed control at 125 g/ha [4] was 0%, the pest or weed control at 500 g/ha [4] was 60% and the pest or weed control at 125 g/ha [5] was 50%. For the same molecule, the pest or weed control at 500 g/ha [5] was 90%, the pest or weed control at 125 g/ha [6, 15] was 90% and the pest or weed control at 500 g/ha ([6]; visual injury rating about 10 d after treatment, 0 to 100 scale (0 no effect, 100 complete control)) was 90%. For the same molecule, the pest or weed control at 125 g/ha (Kochia (Kochia scoparia) [7]) was 20%, the pest or weed control at 500 g/ha (Kochia (Kochia scoparia) [7]) was 40% and the pest or weed control at 125 g/ha [8] was 0%. It also gave a pest or weed control at 500 g/ha [8] of 30%, a pest or weed control at 125 g/ha [9] of 0% and a pest or weed control at 500 g/ha [9] of 0%. It also gave a plant injury at 125 g/ha (corn (Zea mays)) of 20%, a plant injury at 500 g/ha (corn (Zea mays)) of 40% and a pest or weed control at 125 g/ha [10] of 0%. It also gave a pest or weed control at 500 g/ha [10] of 40%, a pest or weed control at 125 g/ha [11] of 20% and a pest or weed control at 500 g/ha [11] of 70%. For the same molecule, the pest or weed control at 125 g/ha [12] was 80%, the pest or weed control at 500 g/ha [12] was 90% and the plant injury at 125 g/ha [13] was 0%. It also gave a plant injury at 500 g/ha [13] of 70%, a pest or weed control at 125 g/ha [14] of 40% and a pest or weed control at 500 g/ha [14] of 40%.
